Test results published in patent US20230203023A1, “SALT AND CRYSTAL FORMS OF GLP-1R AGONISTS AND USES THEREOF” (QILU REGOR THERAPEUTICS INC., priority 2020, published 2023).
Structures can show the parent of a compound that is named as a salt. Values belong to the compound of their own block, whether it stands above or below them.

What was measured:
Type in all cases: physicochemical
[1] = Solid stability evaluation (II/II), HPLC in triplicate
Experimental: The chemical stability of 1:1 Compound II Citrate Salt (Form A) and 1:1 Compound II Tris Salt (Form B) was further evaluated at solid state, samples were stored under the ambient condition or 40° C./75% RH for 1 day and 3 days, respectively.

[2] = Solid stability evaluation (I/II), XRPD and HPLC; settings: for Chemical stability compared with free form: 60° C. 1 day, 25° C./60% RH or 40° C./75% RH 1 week
Experimental: To evaluate the physical and chemical stability of 1:1 Compound I Tris Salt (Form A) and amorphous free form, samples were stored under the conditions of 60° C. for 1 day and 25° C./60% RH or 40° C./75% RH for 1 week, respectively.
To evaluate the physical and chemical stability of 1:1 Compound II Citrate Salt (Form A), 1:1 Compound II Tris Salt (Form B) and freeform, samples were stored under the conditions of 60° C. for 1 day and 25° C./60% RH or 40° C./75% RH for 1 week, respectively.

Hygroscopicity, DVS test = settings: for Hygroscopicity: according to Chinese Pharmacopeia 2015
Experimental: DVS was measured via a SMS (Surface Measurement Systems) DVS Intrinsic. The relative humidity at 25° C. were calibrated against deliquescence point of LiCl, Mg(NO3)2 and KCl.
To investigate the solid form stability as a function of humidity, DVS isotherm plot of 1:1 Compound I Tris Salt (Form A) was collected between 0% RH and 95% RH at 25° C. […] Considering the 1:1 Compound I Tris Salt (Form A) is a hydrate and may dehydrate under low humidity, DVS was also tested at 20 and 30° C. to further confirm the suitable storage condition and avoid dehydration. […] Combing the VH-XRPD and DVS results: the condition of 20-30° C. and relative humidity ≥40% RH is suitable for the storage of 1:1 Compound I Tris Salt (Form A).
To investigate the solid form stability as a function of humidity, DVS isotherm plots of 1:1 Compound II Citrate Salt (Form A) and 1:1 Compound II Tris Salt (Form B) were collected at 25° C. between 0% RH and 95% RH. […] The water uptake increased by 0.97% from 10% to 80% RH and a platform was observed.

[3] = Solution stability evaluation in SGF (pH 1.8) and pH 8.0 buffer at RT
Experimental: Weigh 100 mg of sodium chloride and 50 mg of Triton X-100 into a 50-mL volumetric flask. Add appropriate volume of purified water and sonicate until all solids are completely dissolved. Add about 68 μL of 12 M HCl and sufficient purified water closely to the target volume and adjust to pH 1.8. Dilute to volume with purified water, mix well and check the pH with a pH meter.
Add sufficient purified water closely to the target volume and adjust to pH 8.0. Dilute to volume with purified water, mix well and check the pH with a pH meter. […]
Solution stability was evaluated for 1:1 Compound II Citrate Salt (Form A) and 1:1 Compound II Tris Salt (Form B) in SGF (pH 1.8) and pH 8.0 buffer at RT. Clear solutions were prepared at two concentrations (0.01 mg/mL, 0.05 mg/mL) and then placed at RT for 6 hours, 1/5 days or 6 hours, 1/3/7 days. […] The HPLC purity and pH value were tested and the results were summarized from Table 7-3-1 to Table 7-3-4.

[4] = Ambient condition (open), 1 day
[5] = Ambient condition (open), 3 days
[6] = 0.01 mg/mL, pH 1.8 (SGF), Initial
[7] = 0.01 mg/mL, pH 1.8 (SGF), RT, 6 hours
[8] = 0.01 mg/mL, pH 8.0 (50 mM phosphate), Initial
[9] = 0.01 mg/mL, pH 8.0 (50 mM phosphate), RT, 6 hours
[10] = 0.05 mg/mL, pH 1.8 (SGF), Initial
[11] = 0.05 mg/mL, pH 1.8 (SGF), RT, 6 hours
[12] = 0.05 mg/mL, pH 8.0 (50 mM phosphate), Initial
[13] = 0.05 mg/mL, pH 8.0 (50 mM phosphate), RT, 6 hours
[14] = 1 day, 0.01 mg/mL, pH 1.8 (SGF), RT
[15] = 1 day, 0.01 mg/mL, pH 8.0 (50 mM phosphate), RT
[16] = 1 day, 0.05 mg/mL, pH 1.8 (SGF), RT
[17] = 1 day, 0.05 mg/mL, pH 8.0 (50 mM phosphate), RT
[18] = 5 days, 0.01 mg/mL, pH 1.8 (SGF), RT
[19] = 5 days, 0.01 mg/mL, pH 8.0 (50 mM phosphate), RT
[20] = 5 days, 0.05 mg/mL, pH 1.8 (SGF), RT
[21] = 5 days, 0.05 mg/mL, pH 8.0 (50 mM phosphate), RT
[22] = 0.01 mg/mL, pH 1.8 (SGF), RT, 1 day
[23] = 0.01 mg/mL, pH 1.8 (SGF), RT, 5 days
[24] = 0.01 mg/mL, pH 8.0 (50 mM phosphate), RT, 1 day
[25] = 0.01 mg/mL, pH 8.0 (50 mM phosphate), RT, 5 days

Ave. Purity (area %) ([1]; 40° C./75% RH (open), 1 day): 97.8 area %
Ave. Purity (area %) ([1]; 40° C./75% RH (open), 3 days): 97.9 area %
Ave. Purity (area %) [1, 4]: 97.8 area %
Ave. Purity (area %) [1, 5]: 97.8 area %
Ave. Purity (area %) ([1]; Initial): 97.9 area %
Form change ([2]; 25° C./60% RH (open), 1 week): No
Observation ([2]; 25° C./60% RH (open), 1 week): White
Purity (area %) ([2]; 25° C./60% RH (open), 1 week): 97.58 area %
Form change ([2]; 40° C./75% RH (open), 1 week): No
Observation ([2]; 40° C./75% RH (open), 1 week): White
Purity (area %) ([2]; 40° C./75% RH (open), 1 week): 97.14 area %
Chemical stability compared with free form [2]: better chemical stability
Form change ([2]; 60° C. (capped), 1 day): No
Observation ([2]; 60° C. (capped), 1 day): White
Purity (area %) ([2]; 60° C. (capped), 1 day): 97.50 area %
Form change ([2]; Initial): No
Observation ([2]; Initial): White
Purity (area %) ([2]; Initial): 97.73 area %
Form change after DVS test (Hygroscopicity, DVS test; 25° C.): No
Water uptake (80% RH) (Hygroscopicity, DVS test; 25° C.): 0.71%
Water uptake (80% RH) (Hygroscopicity, DVS test; 25° C., listed as 1:1 Compound II Citrate Salt (Form A)): 0.71%
Hygroscopicity (Hygroscopicity, DVS test; 25° C.): Slightly hygroscopic
Purity (% area) [3, 6]: 100.00 % area
pH [3, 6]: 1.8
Purity (% area) [3, 7]: 100.00 % area
Purity vs. Initial (%) [3, 7]: 100.0%
pH [3, 7]: 1.8
Purity (% area) [3, 8]: 98.67 % area
pH [3, 8]: 8.0
Purity (% area) [3, 9]: 97.89 % area
Purity vs. Initial (%) [3, 9]: 99.2%
pH [3, 9]: 8.0
Purity (% area) [3, 10]: 97.84 % area
pH [3, 10]: 1.8
Purity (% area) [3, 11]: 97.54 % area
Purity vs. Initial (%) [3, 11]: 99.7%
pH [3, 11]: 1.8
Purity (% area) [3, 12]: 98.22 % area
pH [3, 12]: 8.0
Purity (% area) [3, 13]: 98.03 % area
Purity vs. Initial (%) [3, 13]: 99.8%
pH [3, 13]: 8.0
Purity (% area) [3, 14]: 98.51 % area
Purity vs. Initial (%) [3, 14]: 98.5%
pH [3, 14]: 1.8
Purity (% area) [3, 15]: 97.36 % area
Purity vs. Initial (%) [3, 15]: 98.7%
pH [3, 15]: 8.0
Purity (% area) [3, 16]: 96.61 % area
Purity vs. Initial (%) [3, 16]: 98.7%
pH [3, 16]: 1.8
Purity (% area) [3, 17]: 97.95 % area
Purity vs. Initial (%) [3, 17]: 99.7%
pH [3, 17]: 8.0
Purity (% area) [3, 18]: 94.05 % area
Purity vs. Initial (%) [3, 18]: 94.1%
pH [3, 18]: 1.9
Purity (% area) [3, 19]: 97.14 % area
Purity vs. Initial (%) [3, 19]: 98.5%
pH [3, 19]: 7.9
Purity (% area) [3, 20]: 92.31 % area
Purity vs. Initial (%) [3, 20]: 96.1%
pH [3, 20]: 1.8
Purity (% area) [3, 21]: 97.75 % area
Purity vs. Initial (%) [3, 21]: 99.5%
pH [3, 21]: 8.0
Structure (SMILES): N#Cc1ccc(COc2cccc(C3=CCN(Cc4nc5ccc(C(=O)O)cc5n4C[C@@H]4CCO4)CC3)n2)c(F)c1 [Citrate salt Form A, (S)-2-((6-((4-cyano-2-fluorobenzyl)oxy)-3′,6′-dihydro-[2,4′-bipyridin]-1′(2′H)-yl)methyl)-1-(oxetan-2-ylmethyl)-1H-benzo[d]imidazole-6-carboxylic acid]

Ave. Purity (area %) ([1]; 40° C./75% RH (open), 1 day): 94.8 area %
Ave. Purity (area %) ([1]; 40° C./75% RH (open), 3 days): 94.7 area %
Ave. Purity (area %) [1, 4]: 94.8 area %
Ave. Purity (area %) [1, 5]: 94.8 area %
Ave. Purity (area %) ([1]; Initial): 94.5 area %
Chemical stability at solid state, in words ([1]; ambient condition or 40° C./75% RH, 1 day and 3 days): better chemical stability
Purity (area %) ([2]; 25° C./60% RH (open), 1 week): 94.70 area %
Form change ([2]; 40° C./75% RH (open), 1 week): No
Observation ([2]; 40° C./75% RH (open), 1 week): Yellowish
Purity (area %) ([2]; 40° C./75% RH (open), 1 week): 95.40 area %
Chemical stability compared with free form [2]: better chemical stability
Purity (area %) ([2]; 60° C. (capped), 1 day): 93.49 area %
Purity (area %) ([2]; Initial): 95.46 area %
Form change after DVS test (Hygroscopicity, DVS test; 20° C.): No
Water uptake (80% RH) (Hygroscopicity, DVS test; 20° C.): 2.24%
Hygroscopicity (Hygroscopicity, DVS test; 20° C.): Hygroscopic
Form change after DVS test (Hygroscopicity, DVS test; 25° C.): No
Water uptake (80% RH) (Hygroscopicity, DVS test; 25° C.): 2.77%
Hygroscopicity (Hygroscopicity, DVS test; 25° C.): Hygroscopic
Form change after DVS test (Hygroscopicity, DVS test; 25° C., listed as 1:1 Compound I Tris Salt (Form A)): No form change
Form change after DVS test (Hygroscopicity, DVS test; 30° C.): No
Water uptake (80% RH) (Hygroscopicity, DVS test; 30° C.): 2.99%
Hygroscopicity (Hygroscopicity, DVS test; 30° C.): Hygroscopic
Purity (% area) [3, 6]: 100.00 % area
pH [3, 6]: 1.8
Purity (% area) [3, 7]: 100.00 % area
Purity vs. Initial (%) [3, 7]: 100.0%
pH [3, 7]: 1.8
Purity (% area) [3, 22]: 100.00 % area
Purity vs. Initial (%) [3, 22]: 100.0%
pH [3, 22]: 1.8
Purity (% area) [3, 23]: 97.40 % area
Purity vs. Initial (%) [3, 23]: 97.4%
pH [3, 23]: 1.8
Purity (% area) [3, 8]: 97.70 % area
pH [3, 8]: 8.1
Purity (% area) [3, 9]: 96.92 % area
Purity vs. Initial (%) [3, 9]: 99.2%
pH [3, 9]: 8.0
Purity (% area) [3, 24]: 96.07 % area
Purity vs. Initial (%) [3, 24]: 98.3%
pH [3, 24]: 8.0
Purity (% area) [3, 25]: 94.34 % area
Purity vs. Initial (%) [3, 25]: 96.6%
pH [3, 25]: 8.0
Stability of the pH 1.8 solution, in words ([3]; SGF pH 1.8, RT, after 1 day): No significant degradation
Stability of the pH 8.0 solution, in words ([3]; pH 8.0 buffer, RT): decreased slightly
Structure (SMILES): O=C(O)c1ccc2nc(CN3CC=C(c4cccc(OCc5ccc(Cl)cc5F)c4)CC3)n(C[C@@H]3CCO3)c2c1 [Tris salt Form A, (S)-2-((4-(3-((4-chloro-2-fluorobenzyl)-oxy)phenyl)-3,6-dihydropyridin-1(2H)-yl)methyl)-1-(oxetan-2-ylmethyl)-1H-benzo[d]-imidazole-6-carboxylic acid]
